Converted amounts (≈) assume the structure as drawn. “Also recorded” adds a separate entry of the source.
Tests used:
Type in all cases: physicochemical
[1] = Isothermal sorption / dynamic vapor sorption (hygroscopicity); conditions: between 0% RH and 80% RH
Description: Dynamic vapor sorption data and isothermal sorption data were collected on TA Instruments Q5000 TGA. Method: A sample of 1 to 10 mg was placed in a platinum pan; the weight change of the sample during the change in relative humidity from 0% to 80% to 0% was measured.

[2] = Crystalline form stability experiment (XRD after storage); conditions: stored 7 days at high temperature 60° C., high moisture content 97% RH, and 40° C.-75% RH
Description: X-ray powder diffraction (XRPD): performed on Bruker D8 Advance diffractometer. Samples were tested at room temperature. Testing conditions: scan range 3-40° 2θ, step size 0.02°2θ, and speed 0.2 s/step.
Crystalline form stability experiment: 15 mg of amorphous ODM-201, ODM-201 Form 1, ODM-201 Form 2, ODM-201 Form 4 and ODM-201 Form 5 in the present invention were respectively placed under the following different conditions: high temperature 60° C., high moisture content 97% RH, and 40° C.-75% RH. The samples were stored for 7 days before analyzed by XRD crystalline form measurements.

[3] = Chemical stability experiment (HPLC purity after storage); conditions: for reduction of chemical purity after storage: dry condition (desiccator) at 60° C. for 7 days; for Purity (%): dry condition at 60° C., HPLC
Description: HPLC purity data were collected on Ultimate 3000 high performance liquid chromatography under the following conditions: column AY-H (4.6*100 mm, 5 μm) detection wavelength 270 nm, column temperature 40° C., flow rate 0.8 mL/min, injection volume 5 μL. The sample was dissolved in ethanol to make a solution concentration about 1 mg/mL, and a gradient method using HPLC measurements to determine the purity of the sample. […]

[4] = Apparent water solubility; conditions: stirred 1 hour
Description: ODM-201 Form 1, ODM-201 Form 2, ODM-201 Form 3, ODM-201 Form 4 and ODM-201 Form 5 in the present invention were tested for the apparent water solubility, and the specific operations were as follows.
Weighed accurately and placed 15 mg of sample in a 20 mL glass vial containing 5 mL of water, and placed the vials at 25±2° C. and 37±2° C. water bath respectively, stirred in dark (about 200 rpm/min) for 1 hour, filtered with a 0.45 µm filter and took the supernatant, diluted to a certain concentration, analyzed the concentration by HPLC.

Row | SMILES | moisture sorption (weight change) [1] | The test results after 7 days (crystalline form by XRD) [2] | reduction of chemical purity after storage [3] | Purity (%) ([3]; 1 day) | Purity (%) ([3]; 7 days) | Solubility ([4]; 37 ± 2° C.) | Solubility ([4]; 25 ± 2° C.) | The test results after 7 days (crystalline form by XRD) ([2]; listed as ODM-201 amorphous form)
1 | CC(O)c1cc(C(=O)N[C@@H](C)Cn2ccc(-c3ccc(C#N)c(Cl)c3)n2)n[nH]1 (stereo partly drawn) [ODM-201 Form 1, N—((S)-1-(3-(3-chloro-4-cyanophenyl)-1H-pyrazol-1-yl)prop-2-yl)-5-(1-hydroxyethyl)-1H-pyrazole-3-carboxamide] | less than 0.3% | keeps its form unchanged; also recorded: kept their original crystalline forms; also recorded: Form 1 | essentially unchanged; also recorded: still kept their original respective purity level | 99.7% | 99.6% | 17.4 µg/mL (≈ 43.6 µM) |  | 
2 | CC(O)c1cc(C(=O)N[C@@H](C)Cn2ccc(-c3ccc(C#N)c(Cl)c3)n2)n[nH]1 (stereo partly drawn) [ODM-201 Form 2, N—((S)-1-(3-(3-chloro-4-cyanophenyl)-1H-pyrazol-1-yl)prop-2-yl)-5-(1-hydroxyethyl)-1H-pyrazole-3-carboxamide] | 2.5% | kept their original crystalline forms; also recorded: keeps its form unchanged; also recorded: Form 2 | still kept their original respective purity level; also recorded: essentially unchanged | 99.6% | 99.6% | 54.8 µg/mL (≈ 137 µM) | 27.6 µg/mL (≈ 69.2 µM) | 
3 | CC(O)c1cc(C(=O)N[C@@H](C)Cn2ccc(-c3ccc(C#N)c(Cl)c3)n2)[nH]n1 (stereo partly drawn) [ODM-201 Form 3, N—((S)-1-(3-(3-chloro-4-cyanophenyl)-1H-pyrazol-1-yl)prop-2-yl)-5-(1-hydroxyethyl)-1H-pyrazole-3-carboxamide] |  |  |  |  |  | 24.3 µg/mL (≈ 60.9 µM) | 12.5 µg/mL (≈ 31.3 µM) | 
4 | CC(O)c1cc(C(=O)N[C@@H](C)Cn2ccc(-c3ccc(C#N)c(Cl)c3)n2)n[nH]1 (stereo partly drawn) [ODM-201 Form 4, N—((S)-1-(3-(3-chloro-4-cyanophenyl)-1H-pyrazol-1-yl)prop-2-yl)-5-(1-hydroxyethyl)-1H-pyrazole-3-carboxamide] | less than 0.2% | kept their original crystalline forms; also recorded: keeps its form unchanged; also recorded: Form 4 | still kept their original respective purity level; also recorded: essentially unchanged | 99.2% | 99.1% | 88.6 µg/mL (≈ 222 µM) | 59.5 µg/mL (≈ 149 µM) | 
5 | CC(O)c1cc(C(=O)N[C@@H](C)Cn2ccc(-c3ccc(C#N)c(Cl)c3)n2)n[nH]1 (stereo partly drawn) [ODM-201 Form 5, N—((S)-1-(3-(3-chloro-4-cyanophenyl)-1H-pyrazol-1-yl)prop-2-yl)-5-(1-hydroxyethyl)-1H-pyrazole-3-carboxamide] | less than 0.5% | kept their original crystalline forms; also recorded: keeps its form unchanged; also recorded: Form 5 | still kept their original respective purity level; also recorded: essentially unchanged | 99.6% | 99.5% | 29.5 µg/mL (≈ 74 µM) | 17.7 µg/mL (≈ 44.4 µM) | 
6 | CC(O)c1cc(C(=O)N[C@@H](C)Cn2ccc(-c3ccc(C#N)c(Cl)c3)n2)n[nH]1 (stereo partly drawn) [amorphous ODM-201, N—((S)-1-(3-(3-chloro-4-cyanophenyl)-1H-pyrazol-1-yl)prop-2-yl)-5-(1-hydroxyethyl)-1H-pyrazole-3-carboxamide, reference compound] | 6.4% | begins to show a weak crystalline state; also recorded: Amorphous with weak crystalline peaks | more than 1% | 99.7% | 98.2% |  |  | began to show a weak crystalline state
